In the experiment the test system is Black Sigatoka on Bananas. Nature of the experiment: Assessment of disease in field plots: Black Sigatoka on banana plants, natural inoculation. The class given is in vivo, Mycosphaerella fijiensis. The conditions noted are these: for Disease Severity (AUDPC): 61 Day After Application, Area Under Disease Progression Curve, banana field plots; for Total Number of Functional Leaves: bananas. As for the experimental part:
Aliquots of a 10% SC formulation of Compound I were diluted into water and mixed with Spraytex CT mineral oil (7 L/Ha) to achieve active ingredient application rates of 50, 100, 150, 200, 300 & 400 g a.i./Ha. These treatments were delivered to banana plants in field plots at an application volume of 23 L/Ha, using a Solo back-pack pump sprayer fitted with a Micronair AU8000 atomizer. A total of five applications were made at 10 day intervals. Experimental design was based on a randomized complete block, and 4 replications. Disease symptoms resulted from natural inoculation and epidemic development. Total experimental plot size was 96 m^2. Efficacy was determined by both percent visual infection and the number of functional leaves.

Structures are written as SMILES.

On to `COc1ccnc(C(=O)N[C@H]2COC(=O)[C@H](Cc3ccccc3)[C@@H](OC(=O)C(C)C)[C@H](C)OC2=O)c1OCOC(=O)C(C)C` [Compound I], for which the “Disease Severity (AUDPC)” value reads like this: (Compound I 50 ppm) 29; (Compound I 100 ppm) 34; (Compound I 150 ppm) 29; (Compound I 200 ppm) 28; (Compound I 300 ppm) 35. Moreover, the “Total Number of Functional Leaves” value (Rate 50 g ai/ha, Week 10) worked out at 12.8; the “Total Number of Functional Leaves” value (Rate 50 g ai/ha, Week 13) is given as 13.0; the “Total Number of Functional Leaves” value (Rate 50 g ai/ha, Week 15) was determined as 14.7; the “Total Number of Functional Leaves” value (Rate 100 g ai/ha, Week 10) was 9.3; the “Total Number of Functional Leaves” value (Rate 100 g ai/ha, Week 13) is given as 12.7; the “Total Number of Functional Leaves” value (Rate 100 g ai/ha, Week 15) was determined as 14.1. Also, the “Total Number of Functional Leaves” value is, setting by setting: (Rate 200 g ai/ha, Week 10) 8.6; (Rate 200 g ai/ha, Week 13) 12.3; (Rate 200 g ai/ha, Week 15) 14.0; (Rate 400 g ai/ha, Week 10) 8.7; (Rate 400 g ai/ha, Week 13) 12.7; (Rate 400 g ai/ha, Week 15) 14.0.

Values taken from patent US9198419B2, “Use of pro-fungicides of UK-2A for control of black sigatoka” (Dow AgroSciences LLC, priority 2012, dated 2015).
